Data from the NIST ThermoML archive (doi:10.1016/j.jct.2016.10.009).
± gives the expanded uncertainty stated by the source.

Experiment: xn = mol fraction of the nth substance listed
Conditions: Liquid, Vibrating tube method

CC(C)OC(C)C [diisopropyl ether] + CCC(C)O
mass density [kg/m3]
Conditions | x2 = 0 | x2 = 0.2036 | x2 = 0.3227 | x2 = 0.4464 | x2 = 0.4973 | x2 = 0.6595 | x2 = 0.8482
333.15 K, 45000 kPa | – | – | – | 761.8 ± 0.9 | 765.4 ± 0.9 | 777.4 ± 0.9 | 793.2 ± 0.8
333.15 K, 50000 kPa | 739.1 ± 0.9 | 750.4 ± 0.9 | 757.8 ± 0.9 | 765.7 ± 0.9 | 769.2 ± 0.9 | 781.1 ± 0.9 | 796.6 ± 0.9
333.15 K, 55000 kPa | 743.1 ± 1 | 754.3 ± 0.9 | 761.6 ± 0.9 | 769.4 ± 0.9 | 772.9 ± 0.9 | 784.5 ± 0.9 | 799.8 ± 0.9
333.15 K, 60000 kPa | 747.1 ± 1 | 758 ± 1 | 765.2 ± 0.9 | 772.9 ± 0.9 | 776.4 ± 0.9 | 787.9 ± 0.9 | 803 ± 0.9
333.15 K, 65000 kPa | 750.9 ± 1 | 761.7 ± 1 | 768.8 ± 1 | 776.4 ± 1 | 779.8 ± 1 | 791.2 ± 0.9 | 806 ± 0.9
333.15 K, 70000 kPa | 754.4 ± 1 | 765.1 ± 1 | 772.1 ± 1 | 779.7 ± 1 | 783.1 ± 1 | 794.3 ± 0.9 | 808.9 ± 0.9
333.15 K, 80000 kPa | 761.3 ± 1.1 | 771.8 ± 1.1 | 778.6 ± 1 | 785.9 ± 1 | 789.2 ± 1 | 800.2 ± 1 | 814.6 ± 1
333.15 K, 90000 kPa | 767.7 ± 1.1 | 778 ± 1.1 | 784.7 ± 1.1 | 791.9 ± 1.1 | 795.1 ± 1.1 | 805.9 ± 1 | 820 ± 1
333.15 K, 100000 kPa | 773.7 ± 1.2 | 783.7 ± 1.1 | 790.3 ± 1.1 | 797.4 ± 1.1 | 800.5 ± 1.1 | 811.1 ± 1.1 | 824.9 ± 1
333.15 K, 110000 kPa | 779.4 ± 1.2 | 789.3 ± 1.2 | 795.8 ± 1.2 | 802.7 ± 1.1 | 805.9 ± 1.1 | 816.1 ± 1.1 | 829.8 ± 1.1
333.15 K, 120000 kPa | 784.7 ± 1.3 | 794.5 ± 1.2 | 800.9 ± 1.2 | 807.7 ± 1.2 | 810.8 ± 1.2 | 820.9 ± 1.1 | 834.3 ± 1.1
333.15 K, 130000 kPa | 789.9 ± 1.3 | 799.5 ± 1.3 | 805.9 ± 1.2 | 812.5 ± 1.2 | 815.6 ± 1.2 | 825.6 ± 1.2 | 838.8 ± 1.1
333.15 K, 140000 kPa | 794.8 ± 1.3 | 804.2 ± 1.3 | 810.4 ± 1.3 | 817 ± 1.2 | 820 ± 1.2 | 830 ± 1.2 | 842.9 ± 1.1
353.19 K, 100 kPa | – | 672.3 ± 0.7 | 682 ± 0.7 | 692.5 ± 0.7 | – | 712.8 ± 0.7 | 732.9 ± 0.7
353.19 K, 1000 kPa | 659.5 ± 0.7 | 674.1 ± 0.7 | 683.6 ± 0.7 | 694.1 ± 0.7 | 698.7 ± 0.7 | 714.2 ± 0.7 | 734.2 ± 0.7
353.19 K, 5000 kPa | 667.6 ± 0.7 | 681.5 ± 0.7 | 690.7 ± 0.7 | 700.7 ± 0.7 | 705.1 ± 0.7 | 720 ± 0.7 | 739.3 ± 0.7
353.19 K, 10000 kPa | 676.5 ± 0.8 | 689.7 ± 0.8 | 698.5 ± 0.8 | 708 ± 0.8 | 712.3 ± 0.7 | 726.7 ± 0.7 | 745.2 ± 0.7
353.19 K, 15000 kPa | 684.4 ± 0.8 | 697.1 ± 0.8 | 705.5 ± 0.8 | 714.7 ± 0.8 | 718.9 ± 0.8 | 732.8 ± 0.8 | 750.7 ± 0.8
353.19 K, 20000 kPa | 691.5 ± 0.8 | 703.8 ± 0.8 | 711.9 ± 0.8 | 720.9 ± 0.8 | 724.9 ± 0.8 | 738.3 ± 0.8 | 755.8 ± 0.8
353.19 K, 25000 kPa | 698 ± 0.8 | 709.9 ± 0.8 | 717.9 ± 0.8 | 726.6 ± 0.8 | 730.4 ± 0.8 | 743.5 ± 0.8 | 760.6 ± 0.8
353.19 K, 30000 kPa | 704 ± 0.8 | 715.7 ± 0.8 | 723.4 ± 0.8 | 731.9 ± 0.8 | 735.7 ± 0.8 | 748.5 ± 0.8 | 765.1 ± 0.8
353.19 K, 35000 kPa | 709.7 ± 0.9 | 721 ± 0.9 | 728.6 ± 0.9 | 736.8 ± 0.8 | 740.6 ± 0.8 | 753.1 ± 0.8 | 769.3 ± 0.8
353.19 K, 40000 kPa | 714.8 ± 0.9 | 725.9 ± 0.9 | 733.3 ± 0.9 | 741.5 ± 0.9 | 745.1 ± 0.9 | 757.3 ± 0.9 | 773.4 ± 0.8
353.19 K, 45000 kPa | 719.7 ± 0.9 | 730.8 ± 0.9 | 738 ± 0.9 | 745.9 ± 0.9 | 749.5 ± 0.9 | 761.5 ± 0.9 | 777.3 ± 0.9
353.19 K, 50000 kPa | 724.6 ± 0.9 | 735.3 ± 0.9 | 742.4 ± 0.9 | 750.3 ± 0.9 | 753.8 ± 0.9 | 765.6 ± 0.9 | 781 ± 0.9
353.19 K, 55000 kPa | 728.9 ± 1 | 739.4 ± 1 | 746.5 ± 0.9 | 754.3 ± 0.9 | 757.7 ± 0.9 | 769.4 ± 0.9 | 784.5 ± 0.9
353.19 K, 60000 kPa | 733.2 ± 1 | 743.6 ± 1 | 750.5 ± 1 | 758.1 ± 1 | 761.6 ± 1 | 773 ± 0.9 | 788 ± 0.9
353.19 K, 65000 kPa | 737.2 ± 1 | 747.6 ± 1 | 754.3 ± 1 | 761.9 ± 1 | 765.2 ± 1 | 776.6 ± 1 | 791.3 ± 0.9
353.19 K, 70000 kPa | 741.1 ± 1.1 | 751.3 ± 1 | 758 ± 1 | 765.5 ± 1 | 768.8 ± 1 | 780 ± 1 | 794.6 ± 0.9
353.19 K, 80000 kPa | 748.4 ± 1.1 | 758.3 ± 1.1 | 765 ± 1.1 | 772.2 ± 1 | 775.4 ± 1 | 786.3 ± 1 | 800.5 ± 1
353.19 K, 90000 kPa | 755.4 ± 1.2 | 765.1 ± 1.1 | 771.5 ± 1.1 | 778.6 ± 1.1 | 781.8 ± 1.1 | 792.4 ± 1.1 | 806.4 ± 1
353.19 K, 100000 kPa | 761.6 ± 1.2 | 771.2 ± 1.2 | 777.6 ± 1.2 | 784.5 ± 1.1 | 787.6 ± 1.1 | 798 ± 1.1 | 811.8 ± 1.1
353.19 K, 110000 kPa | 767.8 ± 1.3 | 777.1 ± 1.2 | 783.4 ± 1.2 | 790.2 ± 1.2 | 793.3 ± 1.2 | 803.5 ± 1.1 | 816.9 ± 1.1
353.19 K, 120000 kPa | 773.4 ± 1.3 | 782.6 ± 1.3 | 788.8 ± 1.2 | 795.5 ± 1.2 | 798.5 ± 1.2 | 808.6 ± 1.2 | 821.8 ± 1.1
353.19 K, 130000 kPa | 778.8 ± 1.3 | 787.8 ± 1.3 | 793.9 ± 1.3 | 800.6 ± 1.3 | 803.5 ± 1.2 | 813.4 ± 1.2 | 826.5 ± 1.2
353.19 K, 140000 kPa | 784 ± 1.4 | 792.9 ± 1.4 | 798.9 ± 1.3 | 805.4 ± 1.3 | 808.4 ± 1.3 | 818.2 ± 1.2 | 831 ± 1.2
373.24 K, 1000 kPa | 635.6 ± 0.7 | 649.8 ± 0.7 | 659.4 ± 0.7 | 670 ± 0.7 | 674.8 ± 0.7 | 690.8 ± 0.7 | 711.2 ± 0.7
373.24 K, 5000 kPa | 645.5 ± 0.7 | 659 ± 0.7 | 668 ± 0.7 | 678.1 ± 0.7 | 682.5 ± 0.7 | 697.8 ± 0.7 | 717.4 ± 0.7
373.24 K, 10000 kPa | 656.1 ± 0.8 | 668.7 ± 0.8 | 677.2 ± 0.8 | 686.9 ± 0.8 | 691.1 ± 0.8 | 705.6 ± 0.8 | 724.3 ± 0.7
373.24 K, 15000 kPa | 665.3 ± 0.8 | 677.4 ± 0.8 | 685.5 ± 0.8 | 694.7 ± 0.8 | 698.8 ± 0.8 | 712.7 ± 0.8 | 730.7 ± 0.8
373.24 K, 20000 kPa | 673.5 ± 0.8 | 685.1 ± 0.8 | – | – | – | – | –
